Data as given in patent publication EP0770681A2, “T cell epitopes of the major allergens from ambrosia artemisiifolia” (IMMULOGIC PHARMACEUTICAL CORPORATION, priority 1992, dated 1993).
No end group written: not given here.

What was measured:
peptide solubility = format: physicochemical; details: compared among Amb 2-18.1, Amb2-19.1, Amb2-20.1 and Amb2-21.1
From the text: Peptides Amb 2-18.1 (SEQ ID NO:126), Amb2-19.1 (SEQ ID NO:127), Amb2-20.1 (SEQ ID NO:128) and Amb2-21.1 (SEQ ID NO:129) correspond to different lengths of the original peptide which were synthesized (including the serine substitution at position 212) and analyzed to determine solubility. […] Thus, substitutions and/or amino acid additions to this peptide were made in order to further increase the solubility while maintaining T cell reactivity. For example, in peptides Amb2-22.1 (SEQ ID NO:130) and Amb2-23.1 (SEQ ID NO:131) isoleucine at position 201 was substituted with glutamic acid (Amb2-22.1) or lysine (Amb2-23.1) to lower the pI of the resulting peptide and avoid precipitation of the peptide at physiological pH. Similarly, the following peptides were also synthesized with various substitutions or additions designed to decrease the pI and increase the hydrophilicity of the peptide, each is shown in Figure 25: Amb2-26.1 (SEQ ID NO:132); Amb2-28.1 (SEQ ID NO:133); Amb2-30.1 (SEQ ID NO:134); Amb2-32.1 (SEQ ID NO:135); Amb2-33.1 (SEQ ID NO:136); Amb2-34.1 (SEQ ID NO:137); Amb2-35.1 (SEQ ID NO:138); Amb2-36.1 (SEQ ID NO:139); Amb2-37.1 (SEQ ID NO:140); and Amb2-38.1 (SEQ ID NO:141).

[1] = test system: Amb a I.1 stimulated T cell line plus APC; experiment: assessment of peptide toxicity in Amb a I.1 primed secondary T cell culture; format: cell-based, human
Experimental: This could reflect a potential toxic effect of the peptides in the T cell assays. To investigate this possibility, an assay was conducted to determine the ability of the peptides to inhibit T cell proliferation. Inhibition was defined as proliferation of a T cell line in response to the peptide which was less than half the proliferation of media control T cell lines plus autologous EBV transformed antigen presenting cells. […]

[2] = test system: basophils present in heparinized whole blood; experiment: histamine release assay; format: cell-based, human; details: blood of ragweed-allergic patient #1273, similar in seven other patients; Amb a I.1 from 10 µg/ml in 10-fold dilutions, peptides 50 µg/ml to 0.08 µg/ml
Experimental: The histamine release assay used for these studies is based on the detection of an acylated derivative of histamine using a specific monoclonal antibody (Morel, A.M. and Delaage, M.A. (1988) J. Allergy Clin. Immunol. 82:646-654). The assay was performed in two steps: 1) the release of histamine from basophils present in heparinized whole blood in the presence of different concentrations of protein or peptide; and 2) the assay of histamine present in the supernatants of the release reactions following cell removal by centrifugation. The reagents for this second step are available commercially as a competitive radioimmunoassay from AMAC Inc. (Westbrook, ME).
Heparinized whole blood was drawn from ragweed allergic patients. […] The tubes were then centrifuged in a microfuge at 1500 RPM for 3 minutes and the supernatants were carefully removed and analyzed or stored at -20°C for later analysis. […]
For the competition radioimmunoassay, a 50 µl aliquot of each release supernatant was mixed with 150 µl of histamine release buffer (supplied with the kit from AMAC). […] The solutions were aspirated from the tubes and the radioactivity bound to the tube was measured on a gamma counter (Cobra 5005, Beckman, Inc.) for two minutes per tube. […]
Six or more 10-fold dilutions of Amb a I.1 starting at 10 µg/ml (approximately 0.66 µM) were analyzed. […]

**Q.** With SISGSSQIWIDHSSLSKS [AMB2-19.1] as the sequence, how does the solubility (peptide solubility) read?
**A.** most soluble

**Q.** Which results are given for KGTVGGKDGDIYTVTSELDDDVAN [AMB 1-2.1]?
**A.** # patients ([1]; patients with toxicity (proliferation less than half of media control) / patients tested): 3/46; (%)patients ([1]; percent of patients with toxicity (proliferation less than half of media control)): 7%; both ([1]; toxicity at 5 µg/ml and 50 µg/ml peptide, fraction of patients with toxicity): 0; low dose only ([1]; toxicity only at 5 µg/ml peptide, fraction of patients with toxicity): 2/3; high dose only ([1]; toxicity only at 50 µg/ml peptide, fraction of patients with toxicity): 1/3; histamine release [2]: no discernible histamine release
